# According to paper PMC3108148 (Journal of medicinal chemistry, 2011):
# Legend:
# [1] = biological target: cIAP-1 BIR3 (residues 253–363) (Homo sapiens, UniProt Q13490); settings: relative to 15; cited from earlier work
# [2] = biological target: cIAP1 in MDA-MB-231 cells (Homo sapiens, UniProt Q13490); settings: 24 h, MDA-MB-231, Western blot
# [3] = system: PARP cleavage and caspase-3 processing in MDA-MB-231 cells; assay: Western blot analysis of PARP cleavage and caspase-3 processing; assay type: cell-based, human; settings: 24 h; for concentration causing PARP cleavage / concentration causing caspase-3 processing: MDA-MB-231, Western blot; for caspase-3 processing and PARP cleavage: 30 nM, MDA-MB-231
# [4] = biological target: cIAP-2 BIR3 (residues 238–349) (Homo sapiens, UniProt Q13489); settings: relative to 15; cited from earlier work
# [5] = system: subset of human cancer cell lines; settings: cited from earlier work
# MDA-MB-231 xenograft [6] = settings: 5 mg/kg, mice; cited from earlier work
# [7] = biological target: XIAP L-BIR2-BIR3 (residues 120–356) (Homo sapiens, UniProt P98170); settings: relative to 15; cited from earlier work
# XIAP linker-BIR2-BIR3 [8] = biological target: T1, XIAP linker-BIR2-BIR3 (Homo sapiens, UniProt P98170); assay: Cell-free caspase-3/7 functional assay; settings: compound 60 μM; XIAP linker-BIR2-BIR3 20 nM
# XIAP linker-BIR2-BIR3 [9] = biological target: T1, XIAP linker-BIR2-BIR3; assay: Cell-free caspase-9 functional assay; assay type: biochemical; settings: compound as high as 100 μM; XIAP 500 nM
# MDA-MB-231 xenograft [10] = settings: SCID mice; 27 at 1 or 5 mg/kg i.v.; Taxotere […] i.v. days 2 and 9
# Solubility = assay type: physicochemical
smiles,measurement,setting,value
CN[C@@H](C)C(=O)N[C@H]1CCCC[C@H]2CC[C@@H](C(=O)N[C@@H](c3ccccc3)c3cn(CCCCc4ccc(CCCCn5cc([C@@H](NC(=O)[C@@H]6CC[C@@H]7CCCC[C@H](NC(=O)[C@H](C)NC)C(=O)N76)c6ccccc6)nn5)cc4)nn3)N2C1=O [Compound 16],times more potent than 15 in binding to cIAP1 BIR3 protein,[1],10 times
same,concentration inducing clear/robust cIAP1 degradation,[2],1 nM
same,concentration causing PARP cleavage,[3],3 nM
same,concentration causing caspase-3 processing,[3],3 nM
same,times more potent than 15 in binding to cIAP2 BIR3 protein,[4],10 times
same,concentrations effectively inducing apoptosis and inhibiting cell growth (as low as),[5],1 to 10 nM
same,times more potent than 15 in inducing apoptosis and inhibiting cell growth,[5],100 times
same,antitumor effect in MDA-MB-231 xenograft model,MDA-MB-231 xenograft [6],tumor regression
same,times more potent than 15 in binding to XIAP containing both BIR2 and BIR3 domains,[7],> 100 times
"CN[C@@H](C)C(=O)N[C@H]1CCCC[C@H]2CC[C@@H](C(=O)N[C@@H](c3ccccc3)c3cn(CCCCCCc4ccc(CCCCCCn5cc([C@@H](NC(=O)[C@@H]6CC[C@@H]7CCCC[C@H](NC(=O)[C@H](C)NC)C(=O)N76)c6ccccc6)nn5)cc4)nn3)N2C1=O [Compound 21, (S,3S,3′S,6S,6′S,10aS,10a′S)-N,N′-((1S,1′S)-(1,1′-(1,4-phenylenebis(hexane-6,1-diyl))bis(1H-1,2,3-triazole-4,1-diyl))bis(phenylmethylene))bis(6-((S)-2-(methylamino)propanamido)-5-oxodecahydropyrrolo[1,2-a]azocine-3-carboxamide)]",concentration causing PARP cleavage,[3],3 nM
same,concentration causing caspase-3 processing,[3],3 nM
CN[C@@H](C)C(=O)N[C@H]1CCCC[C@H]2CC[C@@H](C(=O)NC(c3ccccc3)c3ccccc3)N2C1=O [Compound 15],caspase-3/7 activity restored,XIAP linker-BIR2-BIR3 [8],40%
CC(=O)N[C@@H](Cc1c[nH]c2ccccc12)C(=O)N[C@H]1CCCC[C@H]2CC[C@@H](C(=O)N[C@@H](c3ccccc3)c3cn(CCCCc4ccc(CCCCn5cc([C@@H](NC(=O)[C@@H]6CC[C@@H]7CCCC[C@H](NC(=O)[C@H](Cc8c[nH]c9ccccc89)NC(C)=O)C(=O)N76)c6ccccc6)nn5)cc4)nn3)N2C1=O [Compound 17],restoration of caspase-9 activity,XIAP linker-BIR2-BIR3 [9],fails to restore any caspase-9 activity
"CN[C@@H](C)C(=O)N[C@H]1CCCC[C@H]2CC[C@@H](C(=O)N[C@@H](c3ccccc3)c3cn(CCc4ccc(CCn5cc([C@@H](NC(=O)[C@@H]6CC[C@@H]7CCCC[C@H](NC(=O)[C@H](C)NC)C(=O)N76)c6ccccc6)nn5)cc4)nn3)N2C1=O [Compound 19, (S,3S,3′S,6S,6′S,10aS,10a′S)-N,N′-((1S,1′S)-(1,1′-(1,4-phenylenebis(ethane-2,1-diyl))bis(1H-1,2,3-triazole-4,1-diyl))bis(phenylmethylene))bis(6-((S)-2-(methylamino)propanamido)-5-oxodecahydropyrrolo[1,2-a]azocine-3-carboxamide)]",caspase-3 processing and PARP cleavage,[3],fail to induce caspase-3 processing and PARP cleavage
"CN[C@@H](C)C(=O)N[C@H]1CCCC[C@H]2CC[C@@H](C(=O)N[C@@H](c3ccccc3)c3cn(CCCCCOCCCCCn4cc([C@@H](NC(=O)[C@@H]5CC[C@@H]6CCCC[C@H](NC(=O)[C@H](C)NC)C(=O)N65)c5ccccc5)nn4)nn3)N2C1=O [Compound 27, (S,3S,3′S,6S,6′S,10aS,10a′S)-N,N′-((1S,1′S)-(1,1′-(oxybis(pentane-5,1-diyl))bis(1H-1,2,3-triazole-4,1-diyl))bis(phenylmethylene))bis(6-((S)-2-(methylamino)propanamido)-5-oxodecahydropyrrolo[1,2-a]azocine-3-carboxamide)]",weight loss / signs of toxicity,MDA-MB-231 xenograft [10],no signs of toxicity
same,solubility,Solubility,excellent solubility
"CN[C@@H](C)C(=O)N[C@H]1CCCC[C@H]2CC[C@@H](C(=O)N[C@@H](c3ccccc3)c3cn(CCCc4ccc(CCCn5cc([C@@H](NC(=O)[C@@H]6CC[C@@H]7CCCC[C@H](NC(=O)[C@H](C)NC)C(=O)N76)c6ccccc6)nn5)cc4)nn3)N2C1=O [Compound 20, (S,3S,3′S,6S,6′S,10aS,10a′S)-N,N′-((1S,1′S)-(1,1′-(1,4-phenylenebis(propane-3,1-diyl))bis(1H-1,2,3-triazole-4,1-diyl))bis(phenylmethylene))bis(6-((S)-2-(methylamino)propanamido)-5-oxodecahydropyrrolo[1,2-a]azocine-3-carboxamide)]",concentration causing PARP cleavage,[3],3 nM
same,concentration causing caspase-3 processing,[3],10 nM
"CN[C@@H](C)C(=O)N[C@H]1CCCC[C@H]2CC[C@@H](C(=O)N[C@@H](c3ccccc3)c3cn(Cc4ccc(Cn5cc([C@@H](NC(=O)[C@@H]6CC[C@@H]7CCCC[C@H](NC(=O)[C@H](C)NC)C(=O)N76)c6ccccc6)nn5)cc4)nn3)N2C1=O [Compound 18, (S,3S,3′S,6S,6′S,10aS,10a′S)-N,N′-((1S,1′S)-(1,1′-(1,4-phenylenebis(methylene))bis(1H-1,2,3-triazole-4,1-diyl))bis(phenylmethylene))bis(6-((S)-2-(methylamino)propanamido)-5-oxodecahydropyrrolo[1,2-a]azocine-3-carboxamide)]",caspase-3 processing and PARP cleavage,[3],fail to induce caspase-3 processing and PARP cleavage
